In patent US20060204975A1, “Markers for cyclin dependent kinase inhibitors” (Cyclacel Limited, priority 2003, published 2006):

What was measured:
A549 cells = test: Affymetrix microarray gene expression in CYC202 treated A549 cells; format: cell-based, human; conditions: 45 and 75 micromolar
Procedure: HT29 and A549 cells, which are derived from human colon and lung tumours respectively, were seeded at approximately 20% confluency, which was equivalent to 1.5×10^6 cells per 10 cm plate in DMEM containing 10% FCS, so that they were actively proliferating upon treatment with the compound the following day.
[…]. RNA was extracted from the A549 cells used in the microarray experiment using TRIZOL reagent (Invitrogen) according to the manufacturer's instructions. For all other cell lines, total RNA was extracted from the cultures with the RNeasy Midi Kit (Qiagen, Hilden, Germany) according to the manufacturer's instructions. […] RNA was eluted in RNase-free water and quantified using RiboGreen (Molecular Probes, Leiden, The Netherlands). […]
RNA extracted from A549 cells was used with the Hu Gene FL Cartridge while RNA from HT-29 cells and PBMC was loaded onto Hu Gene U133A Cartridges. […] The biotinylated cRNA was detected with an antibody amplification step using normal goat IgG as blocking reagent, final concentration 0.1 mg/ml (Sigma) and biotinylated anti-streptavidin antibody (goat), final concentration […] (Vector Laboratories). […] The readings from the quantitative scanning were analysed by the Affymetrix Gene Expression Analysis Software. […]
Data from the Affymetrix Chips were analysed at individual time points following CYC202 treatment.

PNUTS = test: QPCR of PNUTS in whole blood (PAXgene) exposed in vitro to CYC202; format: cell-based, human; conditions: whole blood of several donors exposed in vitro to 30 μM CYC202 for […]
Procedure: In addition, RNA from whole blood samples was analysed by QPCR. Blood from volunteers was collected into Vacutainer Heparin CPT tubes. […] The blood was then transferred into PAXgene tubes (PreAnalytiX), inverted several times, and placed at −20° C. after an initial incubation of 2 hours at room temperature to allow lysis of the cells. When ready for analysis, blood was left to thaw at room temperature for approximately 2 hours, and then processed according to the manufacturer's instructions. The optional DNase digestion step was included. RNA samples were quantified and then used directly in QPCR assays.
In addition, where the expression levels of housekeeper genes have been measured in these samples, the data has been normalized using a derivative of this formula: 2^ΔCttarget/2^ΔCthousekeeper Results
Blood from volunteers was collected into Vacutainer Heparin CPT tubes at Hawkhill Medical Centre, Dundee and treated as described above in Example 2. […]
Blood that had been stored for various lengths of time and under various storage conditions was left to thaw at room temperature for approximately 2 hours, and then processed according to the manufacturer's instructions. […] RNA samples were quantified and then used directly in QPCR assays.

[1] = Pharmacokinetic analysis of breast cancer patient 02-2-01 (08); format: in vivo, human; conditions: 600 mg b.i.d. oral, Day 1
Procedure: Effects on PNUTS and other target genes in vitro has been observed with concentrations of 7.5-15 μM for 1.5-3 hours, which is within the range represented here.

Apolipoprotein A1 = test: SELDI-TOF-MS plasma proteomic profile, 28 kDa biomarker cluster; format: in vivo, human; conditions: plasma fraction 4, SAX chip pH9, 16 Phase 1b patients
Procedure: (§1) All samples were stored at −80° C. in aliquots.
(§2) Proteins were then detected with the ProteinChip® Reader.

7 kDa biomarker cluster = test: SELDI-TOF-MS plasma proteomic profile, 7 kDa biomarker cluster; format: in vivo, human; conditions: 16 Phase 1b patients, last day of treatment
Procedure: as §1, §2

CDK 7 = CDK 7 (Homo sapiens, UniProt P50613); conditions: cited from earlier work
Chain of CDK 7 (P50613 whole entry, species assumed): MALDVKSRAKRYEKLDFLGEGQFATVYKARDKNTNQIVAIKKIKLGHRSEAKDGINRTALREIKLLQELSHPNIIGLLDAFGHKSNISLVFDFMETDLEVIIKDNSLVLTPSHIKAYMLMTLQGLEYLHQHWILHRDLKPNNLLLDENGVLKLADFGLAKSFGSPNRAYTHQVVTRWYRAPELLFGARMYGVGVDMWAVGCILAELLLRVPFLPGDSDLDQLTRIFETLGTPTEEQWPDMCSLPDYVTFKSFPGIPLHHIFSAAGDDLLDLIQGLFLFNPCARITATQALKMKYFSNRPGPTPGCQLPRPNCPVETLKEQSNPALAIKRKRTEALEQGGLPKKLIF
Chain of CDK 7 (P51946 whole entry partner, species assumed): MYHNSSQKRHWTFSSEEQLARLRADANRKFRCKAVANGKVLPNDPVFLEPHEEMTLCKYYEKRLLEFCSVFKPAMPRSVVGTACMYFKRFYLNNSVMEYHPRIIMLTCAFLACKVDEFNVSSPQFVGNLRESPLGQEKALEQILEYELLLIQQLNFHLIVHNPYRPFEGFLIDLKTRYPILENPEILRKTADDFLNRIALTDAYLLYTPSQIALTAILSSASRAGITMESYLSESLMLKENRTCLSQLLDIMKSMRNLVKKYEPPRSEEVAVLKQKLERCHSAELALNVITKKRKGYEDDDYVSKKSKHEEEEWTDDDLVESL

CDK 9 = CDK 9 (Homo sapiens, UniProt P50750); conditions: cited from earlier work
Chain of CDK 9 (P50750 whole entry, species assumed): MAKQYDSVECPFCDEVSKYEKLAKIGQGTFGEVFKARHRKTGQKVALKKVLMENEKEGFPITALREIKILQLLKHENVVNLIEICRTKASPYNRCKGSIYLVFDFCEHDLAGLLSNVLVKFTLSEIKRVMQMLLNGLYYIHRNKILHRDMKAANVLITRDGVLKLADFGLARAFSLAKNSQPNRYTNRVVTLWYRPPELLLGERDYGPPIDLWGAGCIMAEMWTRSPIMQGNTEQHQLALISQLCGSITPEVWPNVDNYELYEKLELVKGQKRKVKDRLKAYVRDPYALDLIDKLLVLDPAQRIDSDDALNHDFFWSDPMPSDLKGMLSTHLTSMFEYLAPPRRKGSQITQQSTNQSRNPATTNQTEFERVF
Chain of CDK 9 (O60563 whole entry partner, species assumed): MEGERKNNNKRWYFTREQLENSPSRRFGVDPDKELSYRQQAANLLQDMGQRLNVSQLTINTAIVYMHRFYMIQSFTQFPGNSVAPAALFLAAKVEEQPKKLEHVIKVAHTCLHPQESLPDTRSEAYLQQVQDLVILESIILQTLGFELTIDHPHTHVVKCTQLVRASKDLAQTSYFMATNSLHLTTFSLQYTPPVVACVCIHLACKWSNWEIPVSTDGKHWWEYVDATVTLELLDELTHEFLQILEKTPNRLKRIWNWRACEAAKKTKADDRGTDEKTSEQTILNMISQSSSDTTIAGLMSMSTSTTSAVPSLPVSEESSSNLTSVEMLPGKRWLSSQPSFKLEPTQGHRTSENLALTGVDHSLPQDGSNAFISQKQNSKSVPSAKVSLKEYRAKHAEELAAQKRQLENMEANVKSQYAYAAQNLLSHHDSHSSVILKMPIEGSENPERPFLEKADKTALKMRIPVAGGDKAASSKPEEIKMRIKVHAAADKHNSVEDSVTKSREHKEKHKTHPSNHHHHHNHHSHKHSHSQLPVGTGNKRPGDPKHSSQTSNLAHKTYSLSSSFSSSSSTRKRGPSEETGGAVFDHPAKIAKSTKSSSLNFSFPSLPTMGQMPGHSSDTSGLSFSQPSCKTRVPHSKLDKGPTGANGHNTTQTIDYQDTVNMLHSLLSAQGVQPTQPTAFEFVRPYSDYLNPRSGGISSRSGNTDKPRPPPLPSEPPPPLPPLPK

cell cycle progression = conditions: cited from earlier work

CC[C@H](CO)Nc1nc(NCc2ccccc2)c2ncn(C(C)C)c2n1 [CYC202, 2-(R)-(1-ethyl-2-hydroxyethylamino)-6-benzylamino-9-isopropylpurine]
gene expression (microarray, genes of FIG. 9/11) (A549 cells; 2 hr): significantly down regulated | gene expression (microarray, genes of FIG. 10/12) (A549 cells; 4 hr): significantly down regulated | expression of PNUTS normalised to housekeeper (HPRT) (PNUTS): reproducibly down-regulated | plasma levels of CYC202 [1]: maintained efficacious levels of CYC202 over several hours | normalised intensity M/Z 28126, after treatment group (Apolipoprotein A1; last day of treatment, before treatment 32.0+/−9.6, p=0.0058): 20.4+/−9.9 | normalised intensity M/Z 27923, after treatment group (Apolipoprotein A1; last day of treatment, before treatment 50.6+/−11.8, p=0.00097): 31.8+/−13.7 | change of marker M/Z 28799 after vs before treatment (Apolipoprotein A1; p=0.19): not deemed to be statistically significant | change of marker M/Z 28292 after vs before treatment (Apolipoprotein A1; p=0.95): not deemed to be statistically significant | normalised intensity M/Z 6984, after treatment group (7 kDa biomarker cluster; neat plasma, CM10 chip, other group 3.1+/−1.2, p=0.0000014): 42.2+/−11.8 | normalised intensity M/Z 6787, after treatment group (7 kDa biomarker cluster; neat plasma, CM10 chip, other group 5.6+/−1.9, p=0.0000014): 27.5+/−10.4 | normalised intensity M/Z 6998, after treatment group (7 kDa biomarker cluster; plasma fraction 6, H50 chip, other group 2.1+/−0.7, p=0.0000031): 42.0+/−9.1 | normalised intensity M/Z 6799, after treatment group (7 kDa biomarker cluster; plasma fraction 6, H50 chip, other group 2.9+/−1.2, p=0.0000031): 29.1+/−8.1 | inhibition of CDK 7 (CDK 7): inhibit | inhibition of CDK 9 (CDK 9): inhibit | effect on cell cycle progression (cell cycle progression): block cell cycle progression in late G1/early S and in M-phase
